For 15 molecules, TGI and GI50 results are on record in PubChem BioAssay (NCI).

Among the test systems are CCRF-CEM leukemia; HT29 colon; K-562 leukemia; SK-MEL-2 melanoma; SN12C renal; SNB-19 CNS; TK-10 renal; U251 CNS; UACC-62 melanoma.
Assay in all cases: NCI-60 cell line screen, 48 h

SMILES strings stand for the structures.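 Briefly, cells in 96-well plates were exposed to five compound concentrations for 48 h, and endpoints were estimated by linear interpolation. At the GI50, growth is halved. TGI: concentration producing complete growth inhibition.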

For `CC1=C(C(=O)Nc2cc(=O)n(C)c(=O)n2C)C(c2ccc([N+](=O)[O-])cc2)C(C(=O)Nc2cc(=O)n(C)c(=O)n2C)=C(C)N1`, the TGI in the experiment on CCRF-CEM leukemia, with HT29 colon, in the experiment on K-562 leukemia, in the experiment with SK-MEL-2 melanoma, in the experiment with SN12C renal and with SNB-19 CNS was more than 100 µM throughout. Besides, the TGI in the experiment with TK-10 renal, in the experiment on U251 CNS and in the experiment with UACC-62 melanoma was more than 100 µM each time.

In the case of `COc1cc(O)c2c(c1)C(=O)C=C(Cl)C2=O`, the TGI with CCRF-CEM leukemia, in the experiment with HT29 colon, in the experiment with K-562 leukemia, in the experiment with SK-MEL-2 melanoma, with SNB-19 CNS and in the experiment on TK-10 renal was more than 100 µM throughout. The TGI in the experiment on U251 CNS and with UACC-62 melanoma was more than 100 µM each time.

With `CCOC(=O)C(=O)Nc1ccc(Cl)cc1C`, the TGI with CCRF-CEM leukemia, with HT29 colon, with K-562 leukemia, with SK-MEL-2 melanoma, in the experiment with SN12C renal and in the experiment on SNB-19 CNS was more than 100 µM each time. For the same molecule, the TGI with TK-10 renal, in the experiment with U251 CNS and in the experiment with UACC-62 melanoma was more than 100 µM throughout.

With `CN(CCc1ccccn1)c1nc(=[N+](C)C)ss1`, the TGI in the experiment on CCRF-CEM leukemia, with HT29 colon, in the experiment with K-562 leukemia, in the experiment on SK-MEL-2 melanoma, in the experiment on SN12C renal and with SNB-19 CNS was more than 100 µM each time. Besides, the TGI with TK-10 renal, with U251 CNS and with UACC-62 melanoma was more than 100 µM in each case.

Regarding `NCCN.NCCN.O=C[O-].O=C[O-].[Co+3].[O-][Cl+3]([O-])([O-])[O-]`, the GI50 in the experiment with CCRF-CEM leukemia, in the experiment on HT29 colon, with K-562 leukemia, in the experiment on SK-MEL-2 melanoma, in the experiment with SN12C renal and with TK-10 renal was more than 100 µM throughout. The GI50 in the experiment on U251 CNS and with UACC-62 melanoma was more than 100 µM in each case. For the same molecule, the TGI in the experiment on CCRF-CEM leukemia, in the experiment on HT29 colon, in the experiment with K-562 leukemia, with SK-MEL-2 melanoma, with SN12C renal and in the experiment on TK-10 renal was more than 100 µM throughout. For the same molecule, the TGI with U251 CNS and in the experiment on UACC-62 melanoma was more than 100 µM in each case.

Turning to `Cc1ccccc1C(=O)Oc1ccc(O)cc1`, the TGI with CCRF-CEM leukemia, in the experiment on HT29 colon, with K-562 leukemia, in the experiment with SK-MEL-2 melanoma, with SN12C renal and with SNB-19 CNS was more than 100 µM throughout. Further, the TGI in the experiment on TK-10 renal, in the experiment on U251 CNS and in the experiment with UACC-62 melanoma was more than 100 µM throughout.

Take `O=C(Cc1nc2ccccc2s1)C(=O)Nc1cccc(Cl)c1`: the TGI in the experiment on CCRF-CEM leukemia, with HT29 colon, with K-562 leukemia, in the experiment with SK-MEL-2 melanoma, in the experiment with SN12C renal and in the experiment on SNB-19 CNS was more than 100 µM in each case. In addition, the TGI with TK-10 renal, in the experiment on U251 CNS and with UACC-62 melanoma was more than 100 µM in each case.

Turning to `COC(=O)CCC(=O)Nc1cc(Cl)ccc1Cl`, the TGI with CCRF-CEM leukemia, in the experiment with HT29 colon, in the experiment with K-562 leukemia, in the experiment with SK-MEL-2 melanoma, with SN12C renal and in the experiment with SNB-19 CNS was more than 100 µM throughout. For the same molecule, the TGI in the experiment with U251 CNS and with UACC-62 melanoma was more than 100 µM throughout.

`CC(C)C1CC2C(=O)N(c3ccccc3)C(=O)C2c2[nH]c3ccccc3c21` (configuration not stated): the TGI with CCRF-CEM leukemia was 54.3 µM; in the experiment on HT29 colon it was more than 100 µM; with K-562 leukemia, 18.7 µM; in the experiment on SK-MEL-2 melanoma it was more than 100 µM; with TK-10 renal, 97.4 µM; in the experiment on U251 CNS, 41.1 µM. In the experiment with UACC-62 melanoma, this molecule showed a TGI of more than 100 µM.

With `O=C(O)/C(Cl)=C(\Cl)C(=O)NC1C2CC3CC(C2)CC1C3` (configuration not stated), the TGI in the experiment on CCRF-CEM leukemia, in the experiment with HT29 colon, with K-562 leukemia, in the experiment with SN12C renal, with SNB-19 CNS and with U251 CNS was more than 100 µM each time. Besides, the TGI in the experiment with UACC-62 melanoma is more than 100 µM.

Consider `COc1ccc(C(=O)C(c2ccc(OC)cc2)C2OC(=O)C(Cl)=C2Cl)cc1` (configuration not stated), for which the TGI in the experiment with CCRF-CEM leukemia, in the experiment on HT29 colon, with K-562 leukemia, in the experiment on SK-MEL-2 melanoma, in the experiment on SN12C renal and in the experiment on SNB-19 CNS was more than 100 µM each time. Moreover, the TGI in the experiment on TK-10 renal, with U251 CNS and with UACC-62 melanoma was more than 100 µM in each case.

Turning to `COc1ccc(NC(=O)CC/C(CC(=O)C(C)(C)C)=N\NC(=O)C(N)=O)cc1`, the TGI with CCRF-CEM leukemia, in the experiment with HT29 colon, in the experiment with K-562 leukemia, in the experiment with SK-MEL-2 melanoma, in the experiment on SN12C renal and with SNB-19 CNS was more than 100 µM in each case. The TGI in the experiment on U251 CNS and with UACC-62 melanoma was more than 100 µM in each case.

Regarding `CN(CC#N)C1CCCC[C@H]1O` (some centres not stated), the TGI in the experiment with CCRF-CEM leukemia, in the experiment with HT29 colon, in the experiment on K-562 leukemia, in the experiment with SK-MEL-2 melanoma, in the experiment on SN12C renal and in the experiment with SNB-19 CNS was more than 100 µM in each case. Besides, the TGI in the experiment with TK-10 renal, in the experiment with U251 CNS and in the experiment with UACC-62 melanoma was more than 100 µM throughout.

Turning to `CN(/N=C/c1cccc2cccnc12)c1ccc([N+](=O)[O-])cc1`, the TGI in the experiment on CCRF-CEM leukemia, in the experiment on HT29 colon, with K-562 leukemia, with SK-MEL-2 melanoma, in the experiment on SN12C renal and with SNB-19 CNS was more than 100 µM in each case. For the same molecule, the TGI in the experiment on TK-10 renal and with UACC-62 melanoma was more than 100 µM each time.

For `CN1C(c2ccccc2)CS(=O)(=O)CS1(=O)=O` (configuration not stated), the TGI with HT29 colon, in the experiment on SK-MEL-2 melanoma, in the experiment with SN12C renal, in the experiment with SNB-19 CNS, with TK-10 renal and in the experiment on U251 CNS was more than 100 µM in each case. Also, the TGI in the experiment with UACC-62 melanoma is more than 100 µM.
